Measurements: PubChem BioAssay AID228 (DTP/NCI, 2004)
Values joined by “and” are separate entries in the source; they are usually repeats but may differ in a detail not shown here. Identical values can stand only once. Records with an inconclusive call do not appear.

System: BDF1 mice, Friend leukemia sc, tumor weight T/C
Test: NCI In Vivo Anticancer Drug Screen. Data for tumor model Friend Virus Leukemia (Solid) (subcutaneous) in B6D2F1 (BDF1) mice
Conditions: endpoint: mean tumor weight, higher = larger tumour
Description: The antitumor activity of compounds was measured in mice bearing transplantable tumors. Survival or tumor size were measured and the results are expressed as the measurement made in the treated group (T) divided by the measurement made in the vehicle treated control group (C). The tumor model used in this assay is Friend Virus Leukemia (Solid) (subcutaneous) in B6D2F1 (BDF1) mice

[1] = dose: 2.0 mg/kg/injection, schedule: Q01DX011 (ip), vehicle: carboxymethylcellulose (CMC)
[2] = dose: 4.0 mg/kg/injection, schedule: Q01DX011 (ip), vehicle: carboxymethylcellulose (CMC)
[3] = dose: 10.0 mg/kg/injection, schedule: Q01DX011 (ip), vehicle: carboxymethylcellulose (CMC)
[4] = dose: 50.0 mg/kg/injection, schedule: Q01DX011 (sc), vehicle: steriod suspending solution
[5] = dose: 100.0 mg/kg/injection, schedule: Q01DX011 (sc), vehicle: steriod suspending solution
[6] = dose: 200.0 mg/kg/injection, schedule: Q01DX011 (sc), vehicle: steriod suspending solution
[7] = dose: 50.0 mg/kg/injection, schedule: Q01DX011 (ip), vehicle: carboxymethylcellulose (CMC)

## CC(/C=N\N=C(N)N)=N/N=C(N)N
dose: 5.7 mg/kg/injection, schedule: Q01DX011 (ip), vehicle: carboxymethylcellulose (CMC)
  T/C: 111 % of control
dose: 11.5 mg/kg/injection, schedule: Q01DX011 (ip), vehicle: carboxymethylcellulose (CMC)
  T/C: 70 % of control
dose: 23.0 mg/kg/injection, schedule: Q01DX011 (ip), vehicle: carboxymethylcellulose (CMC)
  T/C: 96 % of control

## Nc1ncnc2[nH]ncc12
dose: 0.9 mg/kg/injection, schedule: Q01DX011 (ip), vehicle: carboxymethylcellulose (CMC)
  T/C: 108 % of control
dose: 0.93 mg/kg/injection, schedule: Q01DX011 (ip), vehicle: carboxymethylcellulose (CMC)
  T/C: 74 % of control
dose: 1.8 mg/kg/injection, schedule: Q01DX011 (ip), vehicle: carboxymethylcellulose (CMC)
  T/C: 157 % of control
dose: 1.87 mg/kg/injection, schedule: Q01DX011 (ip), vehicle: carboxymethylcellulose (CMC)
  T/C: 90 % of control
dose: 1.9 mg/kg/injection, schedule: Q01DX011 (ip), vehicle: carboxymethylcellulose (CMC)
  T/C: 124 % of control
dose: 3.7 mg/kg/injection, schedule: Q01DX011 (ip), vehicle: carboxymethylcellulose (CMC)
  T/C: 57 % of control
dose: 3.75 mg/kg/injection, schedule: Q01DX011 (ip), vehicle: carboxymethylcellulose (CMC)
  T/C: 50 % of control
dose: 3.8 mg/kg/injection, schedule: Q01DX011 (ip), vehicle: carboxymethylcellulose (CMC)
  T/C: 88 % of control
dose: 5.0 mg/kg/injection, schedule: Q01DX011 (ip), vehicle: carboxymethylcellulose (CMC)
  T/C: 29 % of control
dose: 6.0 mg/kg/injection, schedule: Q01DX011 (ip), vehicle: carboxymethylcellulose (CMC)
  T/C: 40 % of control
dose: 7.0 mg/kg/injection, schedule: Q01DX011 (ip), vehicle: carboxymethylcellulose (CMC)
  T/C: 28 % of control

## Nc1nc(SCc2ccccc2)c2[nH]cnc2n1
[1]
  T/C: 84 % of control
dose: 3.12 mg/kg/injection, schedule: Q01DX011 (ip), vehicle: saline
  T/C: 25 % of control
[2]
  T/C: 79 % of control
dose: 6.25 mg/kg/injection, schedule: Q01DX011 (ip), vehicle: saline
  T/C: 43 % of control
dose: 8.0 mg/kg/injection, schedule: Q01DX011 (ip), vehicle: carboxymethylcellulose (CMC)
  T/C: 99 % of control
[3]
  T/C: 46 % of control

## Cc1ccc(N2CCN(CCCN3CCN(c4ccc(Cl)cc4)CC3)CC2)cc1
dose: 7.5 mg/kg/injection, schedule: Q01DX011 (ip), vehicle: carboxymethylcellulose (CMC)
  T/C: 80 % of control
dose: 15.0 mg/kg/injection, schedule: Q01DX011 (ip), vehicle: carboxymethylcellulose (CMC)
  T/C: 61 % of control
dose: 30.0 mg/kg/injection, schedule: Q01DX011 (ip), vehicle: carboxymethylcellulose (CMC)
  T/C: 55 % of control and 50 % of control
dose: 60.0 mg/kg/injection, schedule: Q01DX011 (ip), vehicle: carboxymethylcellulose (CMC)
  T/C: 49 % of control

## CCOC(=O)NC
dose: 75.0 mg/kg/injection, schedule: Q01DX011 (ip), vehicle: saline
  T/C: 114 % of control
dose: 150.0 mg/kg/injection, schedule: Q01DX011 (ip), vehicle: saline
  T/C: 98 % of control
dose: 300.0 mg/kg/injection, schedule: Q01DX011 (ip), vehicle: saline
  T/C: 75 % of control
dose: 500.0 mg/kg/injection, schedule: Q01DX011 (ip), vehicle: saline
  T/C: 48 % of control
dose: 600.0 mg/kg/injection, schedule: Q01DX011 (ip), vehicle: saline
  T/C: 53 % of control
dose: 750.0 mg/kg/injection, schedule: Q01DX011 (ip), vehicle: saline
  T/C: 37 % of control

## CC(=O)[C@H]1CC[C@H]2[C@@H]3C[C@H](C)C4=CC(=O)CC[C@]4(C)[C@@]3(F)[C@@H](O)C[C@]12C
dose: 6.0 mg/kg/injection, schedule: Q01DX011 (sc), vehicle: steriod suspending solution
  T/C: 163 % of control
dose: 8.0 mg/kg/injection, schedule: Q01DX011 (sc), vehicle: steriod suspending solution
  T/C: 162 % of control
dose: 12.0 mg/kg/injection, schedule: Q01DX011 (sc), vehicle: steriod suspending solution
  T/C: 151 % of control
dose: 16.0 mg/kg/injection, schedule: Q01DX011 (sc), vehicle: steriod suspending solution
  T/C: 80 % of control
[4]
  T/C: 66 % of control and 43 % of control
[5]
  T/C: 22 % of control and 47 % of control
[6]
  T/C: 46 % of control

## CCN(CC)CC(C)Nc1ccc(C)c2sc3ccccc3c(=O)c12 (centres undefined)
dose: 25.0 mg/kg/injection, schedule: Q01DX011 (ip), vehicle: carboxymethylcellulose (CMC)
  T/C: 103 % of control
[7]
  T/C: 60 % of control

## C=CC(CN1CC1)OC(C)=O (centres undefined)
dose: 1.2 mg/kg/injection, schedule: Q01DX011 (ip), vehicle: carboxymethylcellulose (CMC)
  T/C: 70 % of control
dose: 2.4 mg/kg/injection, schedule: Q01DX011 (ip), vehicle: carboxymethylcellulose (CMC)
  T/C: 89 % of control
dose: 2.5 mg/kg/injection, schedule: Q01DX011 (ip), vehicle: saline
  T/C: 50 % of control
dose: 4.8 mg/kg/injection, schedule: Q01DX011 (ip), vehicle: carboxymethylcellulose (CMC)
  T/C: 36 % of control
dose: 5.0 mg/kg/injection, schedule: Q01DX011 (ip), vehicle: saline
  T/C: 31 % of control
dose: 7.5 mg/kg/injection, schedule: Q01DX011 (ip), vehicle: saline
  T/C: 26 % of control
dose: 9.9 mg/kg/injection, schedule: Q01DX011 (ip), vehicle: saline
  T/C: 3 % of control

## Cc1nc(N)nc(N)c1-c1ccc(Cl)c(Cl)c1
dose: 0.75 mg/kg/injection, schedule: Q01DX011 (ip), vehicle: carboxymethylcellulose (CMC)
  T/C: 96 % of control
dose: 1.5 mg/kg/injection, schedule: Q01DX011 (ip), vehicle: carboxymethylcellulose (CMC)
  T/C: 105 % of control
dose: 3.0 mg/kg/injection, schedule: Q01DX011 (ip), vehicle: carboxymethylcellulose (CMC)
  T/C: 59 % of control

## [I][Hg][CH2]C1COCC([CH2][Hg][I])O1.[I][Hg][CH2]C1COCC([CH2][Hg][I])O1 (centres undefined)
[3]
  T/C: 75 % of control
dose: 20.0 mg/kg/injection, schedule: Q01DX011 (ip), vehicle: carboxymethylcellulose (CMC)
  T/C: 56 % of control
dose: 40.0 mg/kg/injection, schedule: Q01DX011 (ip), vehicle: carboxymethylcellulose (CMC)
  T/C: 77 % of control
dose: 80.0 mg/kg/injection, schedule: Q01DX011 (ip), vehicle: carboxymethylcellulose (CMC)
  T/C: 45 % of control

## CC(=O)[C@H]1CC[C@H]2[C@@H]3CCC4=CC(=O)CC[C@]4(C)[C@H]3CC[C@]12C
dose: 250.0 mg/kg/injection, schedule: Q01DX011 (sc), vehicle: steriod suspending solution
  T/C: 228 % of control
dose: 500.0 mg/kg/injection, schedule: Q01DX011 (sc), vehicle: steriod suspending solution
  T/C: 165 % of control
dose: 750.0 mg/kg/injection, schedule: Q01DX011 (sc), vehicle: steriod suspending solution
  T/C: 212 % of control
dose: 1000.0 mg/kg/injection, schedule: Q01DX011 (sc), vehicle: steriod suspending solution
  T/C: 291 % of control

## Clc1ncnc2nc[nH]c12
[7]
  T/C: 71 % of control
dose: 100.0 mg/kg/injection, schedule: Q01DX011 (ip), vehicle: carboxymethylcellulose (CMC)
  T/C: 47 % of control
dose: 200.0 mg/kg/injection, schedule: Q01DX011 (ip), vehicle: carboxymethylcellulose (CMC)
  T/C: 18 % of control

## CO[C@H]1[C@@H](O)C[C@H]2[C@@H]3CC=C4C[C@@H](O)CC[C@]4(C)[C@H]3CC[C@@]21C
dose: 10.0 mg/kg/injection, schedule: Q01DX011 (sc), vehicle: steriod suspending solution
  T/C: 77 % of control
dose: 20.0 mg/kg/injection, schedule: Q01DX011 (sc), vehicle: steriod suspending solution
  T/C: 116 % of control
dose: 40.0 mg/kg/injection, schedule: Q01DX011 (sc), vehicle: steriod suspending solution
  T/C: 115 % of control

## c1ccc(CSc2ncnc3nc[nH]c23)nc1
[1]
  T/C: 88 % of control
[2]
  T/C: 46 % of control
dose: 9.0 mg/kg/injection, schedule: Q01DX011 (ip), vehicle: carboxymethylcellulose (CMC)
  T/C: 33 % of control and 39 % of control
dose: 18.0 mg/kg/injection, schedule: Q01DX011 (ip), vehicle: carboxymethylcellulose (CMC)
  T/C: 3 % of control and 7 % of control
dose: 37.0 mg/kg/injection, schedule: Q01DX011 (ip), vehicle: carboxymethylcellulose (CMC)
  T/C: 6 % of control and 18 % of control

## CCC1/C=C/C=C/CC(C)C(O)C(C)(O)C(=O)C(C)C(O)C(C)C(=O)C(C)C(O)C(C)/C=C/C(=O)OC2C(C)C(CC1)OC1(OC(CC(C)O)C(C)CC1=O)C2C (centres undefined) (tested in a mixture with another compound)
dose: 1.56 mg/kg/injection, schedule: Q01DX011 (ip), vehicle: carboxymethylcellulose (CMC)
  T/C: 54 % of control
dose: 3.12 mg/kg/injection, schedule: Q01DX011 (ip), vehicle: carboxymethylcellulose (CMC)
  T/C: 64 % of control
dose: 6.25 mg/kg/injection, schedule: Q01DX011 (ip), vehicle: carboxymethylcellulose (CMC)
  T/C: 46 % of control

## COc1ccc(-c2coc3cc(OC)c(OC)c(OC)c3c2=O)cc1
[4]
  T/C: 299 % of control
[5]
  T/C: 250 % of control
[6]
  T/C: 275 % of control
